Test results: the supplement of paper PMC11451515

Columns and labels:
NOMO1 [1] = test: AUC of viability dose-response curve (% viability x log10 dose units); higher = less sensitive; conditions: 48 h
Method in brief: (§1)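 Library compounds in DMSO were applied for 48 h at 37°C at 11 threefold doses (47 μM to 0.79 nM) to medium-adapted leukemia cells in 1536-well plates holding 500 or 1000 cells/well. Luminescence from CellTiter-Glo One was normalised plate by plate against DMSO and cell-free wells. Area under the curve came from trapezoidal integration of a log-logistic fit, after scaling curves that rose above full viability and discarding those that failed quality control. The fit had four parameters and used log10 doses.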

SEM cells [2] = test: as above; conditions: 48 h
Method in brief: as §1

P12-Ichikawa [3] = test: as above; conditions: 48 h
Method in brief: as §1

SEM cells [4] = test: cell viability relative to DMSO control; higher = less cytotoxic; conditions: 48 h
Method in brief: (§2)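 Three leukemia lines were tested: NOMO1 and SEM at 500 cells/well and P12-Ichikawa at 1000 cells/well. Each was adapted for at least four passages in each medium and seeded in 5 μl in 1536-well plates, and library compounds in DMSO were pin-dosed from 47 μM to 0.79 nM in 11 threefold steps. After 48 h at 37°C, CellTiter-Glo One luminescence was read. Viability is a percentage relative to DMSO wells on each plate, with cell-free wells as background.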

P12-Ichikawa [5] = test: as above; conditions: 48 h
Method in brief: as §2

NOMO1 [6] = test: as above; conditions: RPMI 5 mM glucose + 10% FBS, 48 h
Method in brief: as §2

C\C1=N\N=C(\C2=CC=C(N)C=C2)C3=CC4=C(OCO4)C=C3C1
AUC of viability dose-response curve
Conditions | NOMO1 [1] | P12-Ichikawa [3] | SEM cells [2]
HPLM + 10% dialyzed FBS | 471 | 469 | 467
RPMI 5 mM glucose + 10% FBS | 471 | 465 | 470
RPMI 5 mM glucose + 10% dialyzed FBS | 464 | 465 | 464

SEM cells [4], HPLM + 10% dialyzed FBS
Conditions | cell viability [%]
0.000781 µM | 129
0.00234 µM | 115
0.00702 µM | 122
0.0211 µM | 136
0.0632 µM | 126
0.19 µM | 123
0.569 µM | 131
1.71 µM | 131
5.12 µM | 150
15.4 µM | 138
46.1 µM | 107

COc1cc(C(C)C)c(Oc2cnc(NC(CO)CO)nc2N)cc1I
AUC of viability dose-response curve
Conditions | NOMO1 [1] | P12-Ichikawa [3] | SEM cells [2]
HPLM + 10% dialyzed FBS | 468 | 464 | 458
RPMI 5 mM glucose + 10% FBS | 436 | 466 | 442
RPMI 5 mM glucose + 10% dialyzed FBS | 457 | 452 | 453

NC/1=N/C(=O)N/C=C1F
AUC of viability dose-response curve
Conditions | NOMO1 [1] | P12-Ichikawa [3] | SEM cells [2]
HPLM + 10% dialyzed FBS | 417 | 455 | 468
RPMI 5 mM glucose + 10% FBS | 432 | 438 | 464
RPMI 5 mM glucose + 10% dialyzed FBS | 405 | 432 | 429

SEM cells [4], HPLM + 10% dialyzed FBS
Conditions | cell viability [%]
0.000781 µM | 118
0.00234 µM | 145
0.00702 µM | 123
0.0211 µM | 134
0.0632 µM | 118
0.19 µM | 125
0.569 µM | 125
1.71 µM | 136
5.12 µM | 130
15.4 µM | 120
46.1 µM | 103

CCC(=O)O[C@@]1([C@@H](C)C[C@H]2[C@@H]3CCC/4=C/C(=O)/C=C\[C@]4(C)[C@@]3(F)[C@@H](O)C[C@]12C)C(=O)CCl
AUC of viability dose-response curve
Conditions | NOMO1 [1] | P12-Ichikawa [3] | SEM cells [2]
HPLM + 10% dialyzed FBS | 411 | 325 | 339
RPMI 5 mM glucose + 10% FBS | 467 | 254 | 336
RPMI 5 mM glucose + 10% dialyzed FBS | 429 | 251 | 308

cell viability [%]
Conditions | HPLM + 10% dialyzed FBS | RPMI 5 mM glucose + 10% FBS | RPMI 5 mM glucose + 10% dialyzed FBS
P12-Ichikawa [5], 0.000781 µM | 118 | – | 134
P12-Ichikawa [5], 0.00234 µM | 121 | – | 107
P12-Ichikawa [5], 0.00702 µM | 101 | – | 83.8
P12-Ichikawa [5], 0.0211 µM | 86.8 | – | 79.9
P12-Ichikawa [5], 0.0632 µM | 79.2 | – | 59.9
P12-Ichikawa [5], 0.19 µM | 73 | – | 61.3
P12-Ichikawa [5], 0.569 µM | 76.9 | – | 56.2
P12-Ichikawa [5], 1.71 µM | 76.9 | – | 57
P12-Ichikawa [5], 5.12 µM | 70.2 | – | 54.1
P12-Ichikawa [5], 15.4 µM | 68.6 | – | 51.3
P12-Ichikawa [5], 46.1 µM | 55 | – | 38.5
SEM cells [4], 0.000781 µM | 86 | 88.5 | 85.2
SEM cells [4], 0.00234 µM | 92.1 | 95.4 | 81
SEM cells [4], 0.00702 µM | 91.3 | 95.9 | 91.4
SEM cells [4], 0.0211 µM | 57.7 | 51.3 | 49.4
SEM cells [4], 0.0632 µM | 71.1 | 67.8 | 63.3
SEM cells [4], 0.19 µM | 69.8 | 62.6 | 64.6
SEM cells [4], 0.569 µM | 57 | 65.1 | 64.8
SEM cells [4], 1.71 µM | 72.3 | 66.1 | 54.1
SEM cells [4], 5.12 µM | 61.8 | 67.6 | 64.1
SEM cells [4], 15.4 µM | 66.4 | 56 | 55.6
SEM cells [4], 46.1 µM | 63.4 | 66.9 | 40.7

OCc1ccccc1O[C@@H]1O[C@H](CO)[C@@H](O)[C@H](O)[C@H]1O
Conditions | AUC of viability dose-response curve | cell viability [%]
NOMO1 [1], HPLM + 10% dialyzed FBS | 447 | –
NOMO1 [1], RPMI 5 mM glucose + 10% FBS | 463 | –
NOMO1 [1], RPMI 5 mM glucose + 10% dialyzed FBS | 458 | –
NOMO1 [6], 0.000781 µM | – | 120
NOMO1 [6], 0.00234 µM | – | 116
NOMO1 [6], 0.00702 µM | – | 139
NOMO1 [6], 0.0211 µM | – | 128
NOMO1 [6], 0.0632 µM | – | 126
NOMO1 [6], 0.19 µM | – | 139
NOMO1 [6], 0.569 µM | – | 138
NOMO1 [6], 1.71 µM | – | 127
NOMO1 [6], 5.12 µM | – | 129
NOMO1 [6], 15.4 µM | – | 106
NOMO1 [6], 46.1 µM | – | 98.7
P12-Ichikawa [3], HPLM + 10% dialyzed FBS | 464 | –
P12-Ichikawa [3], RPMI 5 mM glucose + 10% FBS | 448 | –
P12-Ichikawa [3], RPMI 5 mM glucose + 10% dialyzed FBS | 459 | –
SEM cells [2], HPLM + 10% dialyzed FBS | 430 | –
SEM cells [2], RPMI 5 mM glucose + 10% FBS | 372 | –
SEM cells [2], RPMI 5 mM glucose + 10% dialyzed FBS | 426 | –

SEM cells [4], RPMI 5 mM glucose + 10% dialyzed FBS
Conditions | cell viability [%]
0.000781 µM | 101
0.00234 µM | 121
0.00702 µM | 118
0.0211 µM | 121
0.0632 µM | 136
0.19 µM | 148
0.569 µM | 121
1.71 µM | 117
5.12 µM | 97.5
15.4 µM | 61.8
46.1 µM | 48.8

COCCCOc1cc(C[C@@H](C[C@H](N)[C@@H](O)C[C@H](C(=O)NCC(C)(C)C(N)=O)C(C)C)C(C)C)ccc1OC
AUC of viability dose-response curve
Conditions | NOMO1 [1] | P12-Ichikawa [3] | SEM cells [2]
HPLM + 10% dialyzed FBS | 457 | 473 | 473
RPMI 5 mM glucose + 10% FBS | 474 | 471 | 461
RPMI 5 mM glucose + 10% dialyzed FBS | 461 | 475 | 458

Cn1c2ccccc2c2c3c(c4c5ccccc5n(CCC#N)c4c21)CNC3=O
AUC of viability dose-response curve
Conditions | NOMO1 [1] | P12-Ichikawa [3] | SEM cells [2]
HPLM + 10% dialyzed FBS | 362 | 393 | 305
RPMI 5 mM glucose + 10% FBS | 376 | 363 | 308
RPMI 5 mM glucose + 10% dialyzed FBS | 367 | 367 | 300

cell viability [%], SEM cells [4]
Conditions | HPLM + 10% dialyzed FBS | RPMI 5 mM glucose + 10% dialyzed FBS
0.000781 µM | 109 | 123
0.00234 µM | 118 | 103
0.00702 µM | 142 | 159
0.0211 µM | 119 | 130
0.0632 µM | 111 | 124
0.19 µM | 98.1 | 107
0.569 µM | 55 | 52.7
1.71 µM | 41 | 39.4
5.12 µM | 25.7 | 19
15.4 µM | 18.8 | 18.5
46.1 µM | 17.6 | 11.2
